According to ChEMBL document CHEMBL4814074 (Bioorg Med Chem Lett, 2021):

Key:
hERG (KCNH2) = hERG (KCNH2) (Homo sapiens, UniProt Q12809); experiment: Inhibition of human ERG at 3 uM relative to control
Lassa virus [1] = experiment: Antiviral activity against pseudotyped Lassa mammarenavirus; type: functional, organism-based; settings: Mammarenavirus lassaense
Machupo mammarenavirus = experiment: Antiviral activity against pseudotyped Machupo virus; type: functional, organism-based; settings: Mammarenavirus machupoense
Junin virus [2] = experiment: Antiviral activity against pseudotyped Junin virus; type: functional, organism-based; settings: Mammarenavirus juninense
[3] = (§1) Cytotoxicity against African green monkey Vero cells measured after 5 days; type: cell-based; settings: chlorocebus sabaeus, Vero cells; time 5 day
Vero = experiment: as §1; type: cell-based; settings: chlorocebus sabaeus, vero, 120 h; time 5 day
Junin virus [4] = experiment: Antiviral activity against Junin virus by virus yield reduction assay; type: functional, organism-based; settings: Mammarenavirus juninense
CYP2C19 = CYP2C19 (Homo sapiens, UniProt P33261); experiment: Inhibition of CYP2C19 (unknown origin) at 20 uM; type: ADME
Sequence of CYP2C19 (P33261 whole entry): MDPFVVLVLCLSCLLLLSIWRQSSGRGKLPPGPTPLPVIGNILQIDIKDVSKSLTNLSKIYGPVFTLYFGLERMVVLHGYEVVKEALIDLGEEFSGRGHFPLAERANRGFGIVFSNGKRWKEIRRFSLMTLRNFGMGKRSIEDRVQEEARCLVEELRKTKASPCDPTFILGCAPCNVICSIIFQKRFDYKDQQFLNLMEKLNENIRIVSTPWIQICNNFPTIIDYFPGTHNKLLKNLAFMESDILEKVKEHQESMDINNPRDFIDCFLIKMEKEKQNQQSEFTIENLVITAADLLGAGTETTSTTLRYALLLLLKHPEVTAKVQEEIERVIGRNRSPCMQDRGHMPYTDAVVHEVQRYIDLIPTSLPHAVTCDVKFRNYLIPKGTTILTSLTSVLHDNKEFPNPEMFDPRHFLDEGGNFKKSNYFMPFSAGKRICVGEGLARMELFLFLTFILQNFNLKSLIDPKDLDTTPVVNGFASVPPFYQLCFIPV

CYP2D6 = CYP2D6 (Homo sapiens, UniProt P10635); experiment: Inhibition of CYP2D6 (unknown origin) at 20 uM; type: ADME
Sequence of CYP2D6 (P10635 whole entry): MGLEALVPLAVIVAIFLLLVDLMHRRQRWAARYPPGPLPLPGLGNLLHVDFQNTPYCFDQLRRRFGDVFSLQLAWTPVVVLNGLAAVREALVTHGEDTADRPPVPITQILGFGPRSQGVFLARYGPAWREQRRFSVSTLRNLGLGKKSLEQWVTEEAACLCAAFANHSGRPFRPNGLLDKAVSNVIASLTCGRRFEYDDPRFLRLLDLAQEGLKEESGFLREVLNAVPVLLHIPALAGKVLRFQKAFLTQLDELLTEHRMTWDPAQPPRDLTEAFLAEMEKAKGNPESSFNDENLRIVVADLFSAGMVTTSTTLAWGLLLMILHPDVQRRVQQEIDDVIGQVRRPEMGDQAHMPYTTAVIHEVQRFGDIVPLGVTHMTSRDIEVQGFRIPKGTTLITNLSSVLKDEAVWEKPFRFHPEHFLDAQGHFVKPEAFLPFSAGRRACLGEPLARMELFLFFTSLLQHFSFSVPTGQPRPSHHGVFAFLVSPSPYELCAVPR

CYP2C9 = CYP2C9 (Homo sapiens, UniProt P11712); experiment: Inhibition of CYP2C9 (unknown origin) at 20 uM; type: ADME
Sequence of CYP2C9 (P11712 whole entry): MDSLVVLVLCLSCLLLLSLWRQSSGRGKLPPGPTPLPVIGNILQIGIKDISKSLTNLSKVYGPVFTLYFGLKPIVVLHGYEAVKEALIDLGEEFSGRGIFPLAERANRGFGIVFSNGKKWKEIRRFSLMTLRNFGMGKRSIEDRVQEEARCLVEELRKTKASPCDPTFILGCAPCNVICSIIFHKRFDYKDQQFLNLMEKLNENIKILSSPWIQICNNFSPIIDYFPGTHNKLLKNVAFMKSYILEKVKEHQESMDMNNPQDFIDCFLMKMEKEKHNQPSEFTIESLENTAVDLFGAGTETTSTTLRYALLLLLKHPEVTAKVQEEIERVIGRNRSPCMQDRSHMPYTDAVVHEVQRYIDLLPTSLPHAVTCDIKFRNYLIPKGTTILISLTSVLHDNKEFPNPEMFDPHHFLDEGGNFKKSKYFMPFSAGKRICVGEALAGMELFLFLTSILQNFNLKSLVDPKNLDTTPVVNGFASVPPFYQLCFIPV

CYP3A4 = CYP3A4 (Homo sapiens, UniProt P08684); experiment: Inhibition of CYP3A4 (unknown origin) at 20 uM; type: ADME
Sequence of CYP3A4 (P08684 whole entry): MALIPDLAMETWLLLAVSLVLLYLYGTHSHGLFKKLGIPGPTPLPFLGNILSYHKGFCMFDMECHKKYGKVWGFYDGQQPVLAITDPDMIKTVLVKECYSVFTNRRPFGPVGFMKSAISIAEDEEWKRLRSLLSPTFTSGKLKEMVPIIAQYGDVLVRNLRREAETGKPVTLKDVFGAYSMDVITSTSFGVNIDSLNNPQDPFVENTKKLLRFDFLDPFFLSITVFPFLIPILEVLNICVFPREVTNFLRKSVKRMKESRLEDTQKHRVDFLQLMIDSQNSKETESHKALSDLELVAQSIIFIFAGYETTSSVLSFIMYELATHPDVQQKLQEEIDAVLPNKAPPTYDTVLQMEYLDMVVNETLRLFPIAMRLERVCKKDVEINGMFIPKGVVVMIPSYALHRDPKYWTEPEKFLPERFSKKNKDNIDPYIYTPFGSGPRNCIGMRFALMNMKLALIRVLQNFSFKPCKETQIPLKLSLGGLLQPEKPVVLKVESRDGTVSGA

CYP1A2 = biological target: T1, CYP1A2 (Homo sapiens, UniProt P05177); experiment: Inhibition of CYP1A2 (unknown origin) at 20 uM; type: ADME
T1 sequence (P05177 whole entry): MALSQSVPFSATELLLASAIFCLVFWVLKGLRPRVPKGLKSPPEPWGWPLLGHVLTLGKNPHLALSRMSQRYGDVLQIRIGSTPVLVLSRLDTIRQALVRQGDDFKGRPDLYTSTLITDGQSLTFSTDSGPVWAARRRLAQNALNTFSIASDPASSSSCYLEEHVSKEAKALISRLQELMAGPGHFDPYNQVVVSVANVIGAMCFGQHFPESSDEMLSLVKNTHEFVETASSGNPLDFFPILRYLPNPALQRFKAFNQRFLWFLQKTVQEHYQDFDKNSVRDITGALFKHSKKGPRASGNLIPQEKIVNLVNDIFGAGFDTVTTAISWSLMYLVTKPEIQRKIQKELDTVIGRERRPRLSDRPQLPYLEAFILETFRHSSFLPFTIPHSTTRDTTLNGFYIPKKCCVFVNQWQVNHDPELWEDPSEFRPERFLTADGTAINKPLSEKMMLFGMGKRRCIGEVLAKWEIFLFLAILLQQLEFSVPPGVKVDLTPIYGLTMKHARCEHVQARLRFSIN

Lassa virus [5] = experiment: Antiviral activity against Lassa virus by virus yield reduction assay; type: functional, organism-based; settings: Mammarenavirus lassaense
Lassa virus [6] = experiment: Antiviral activity against Lassa virus by plaque reduction assay; type: functional, organism-based; settings: Mammarenavirus lassaense

Sequence of hERG (KCNH2) (Q12809 whole entry): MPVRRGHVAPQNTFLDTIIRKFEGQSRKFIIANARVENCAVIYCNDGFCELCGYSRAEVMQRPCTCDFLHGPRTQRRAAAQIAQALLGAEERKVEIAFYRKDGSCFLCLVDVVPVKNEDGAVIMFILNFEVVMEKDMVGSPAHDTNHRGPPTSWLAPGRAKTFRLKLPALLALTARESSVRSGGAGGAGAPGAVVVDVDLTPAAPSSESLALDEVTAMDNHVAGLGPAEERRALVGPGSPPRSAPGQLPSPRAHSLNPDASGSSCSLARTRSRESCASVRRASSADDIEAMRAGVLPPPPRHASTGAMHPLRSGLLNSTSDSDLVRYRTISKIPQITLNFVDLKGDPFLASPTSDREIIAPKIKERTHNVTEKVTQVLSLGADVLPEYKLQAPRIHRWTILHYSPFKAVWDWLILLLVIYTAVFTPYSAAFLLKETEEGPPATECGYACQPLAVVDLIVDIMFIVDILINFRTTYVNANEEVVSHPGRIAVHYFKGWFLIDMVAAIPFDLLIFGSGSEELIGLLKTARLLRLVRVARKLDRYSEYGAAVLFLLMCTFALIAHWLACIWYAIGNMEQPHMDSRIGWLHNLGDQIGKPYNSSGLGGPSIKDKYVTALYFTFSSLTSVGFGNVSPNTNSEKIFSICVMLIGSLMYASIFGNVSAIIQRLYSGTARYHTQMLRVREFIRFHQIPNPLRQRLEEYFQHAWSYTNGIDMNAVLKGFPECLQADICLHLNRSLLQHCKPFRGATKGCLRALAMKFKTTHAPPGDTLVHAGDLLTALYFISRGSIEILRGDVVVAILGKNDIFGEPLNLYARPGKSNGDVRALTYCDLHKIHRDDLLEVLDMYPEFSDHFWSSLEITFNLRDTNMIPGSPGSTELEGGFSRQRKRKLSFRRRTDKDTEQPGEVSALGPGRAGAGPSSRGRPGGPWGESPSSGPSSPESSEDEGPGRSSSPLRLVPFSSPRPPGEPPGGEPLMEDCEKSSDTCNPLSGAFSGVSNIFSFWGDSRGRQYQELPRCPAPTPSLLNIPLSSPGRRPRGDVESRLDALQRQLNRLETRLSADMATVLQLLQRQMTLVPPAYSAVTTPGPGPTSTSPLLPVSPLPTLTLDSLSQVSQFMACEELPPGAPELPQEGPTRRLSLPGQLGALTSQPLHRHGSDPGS

| Structure (SMILES) | inhibition at 3 µM (hERG (KCNH2)) | EC50 (Lassa virus [1]) | EC50 (Machupo mammarenavirus) | EC50 (Junin virus [2]) | other results |
| --- | --- | --- | --- | --- | --- |
| CC(C)Oc1ccc(-c2ccc3ncn(-c4ccc(OC(C)C)cc4)c3n2)cc1 | < 10% | – | – | – | – |
| CC(C)Oc1ccc(-c2ccn3cnc(-c4ccc(OC(C)C)cc4)c3c2)cc1 | – | 20.9 nM | > 25 nM | 21.8 nM | CC50 at 120 h [3]: 7540 nM |
| Cc1c(-c2ccc(OC(C)C)cc2)ccc2ncc(-c3ccc(OC(C)C)cc3)n12 | – | 0.32 nM | 0.16 nM | 0.17 nM | CC50 (Vero): 4190 nM |
| Cc1cc2nnn(-c3ccc(OC(C)C)cc3)c2cc1-c1ccc(OC(C)C)cc1 | < 10% | 1.05 nM | 0.52 nM | 0.21 nM | EC50 (Junin virus [4]): < 1 nM; EC90 (Junin virus [4]): 2.4 nM |
| CC(C)Oc1ccc(-c2ccc3nnn(-c4ccc(OC(C)C)cc4)c3c2)cc1 | 17% | – | – | – | – |
| CC(C)Oc1ccc(-c2cnc3ccc(-c4ccc(OCCN5CCOCC5)cc4)cn23)cc1 | – | > 25 nM | > 25 nM | > 25 nM | – |
| CC(C)Oc1ccc(-c2ccc3ncc(-c4ccc(OC(C)(C)C)cc4)n3c2)cc1 | 48% | – | – | – | – |
| Cc1cc2ncc(-c3ccc(OC(C)C)cc3)n2cc1-c1ccc(OC(C)C)cc1 | 14% | – | – | – | inhibition at 20 µM (CYP2C19): < 21%; inhibition at 20 µM (CYP2D6): < 21%; inhibition at 20 µM (CYP2C9): < 21%; inhibition at 20 µM (CYP3A4): < 21%; inhibition at 20 µM (CYP1A2): < 21% |
| CC(C)Oc1ccc(-c2ccc3ncn(-c4ccc(OC(C)C)cc4)c3c2)cc1 | 30% | – | – | – | – |
| CC(C)Oc1ccc(-c2cnc3ncc(-c4ccc(OC(C)C)cc4)n3c2)cc1 | 37% | – | – | – | – |
| CC(C)Oc1ccc(-c2ccc3nnc(-c4ccc(OC(C)C)cc4)n3c2)cc1 | 57% | – | – | – | – |
| CC(C)Oc1ccc(-c2ccc3cnn(-c4ccc(OC(C)C)cc4)c3c2)cc1 | – | > 25 nM | > 25 nM | 14 nM | – |
| CC(C)Oc1ccc(-c2cnc3ccc(-c4ccc(C(N)=O)cc4)cn23)cc1 | – | > 25 nM | > 25 nM | > 25 nM | – |
| CC(C)Oc1ccc(-c2ccc3cnc(-c4ccc(OC(C)C)cc4)n3c2)cc1 | – | > 25 nM | > 25 nM | > 25 nM | – |
| Cc1cc2ncc(-c3ccc(OC(C)(C)C)cc3)n2cc1-c1ccc(OC(C)C)cc1 | < 10% | 0.68 nM | 0.17 nM | 0.3 nM | inhibition at 20 µM (CYP2C19): < 21%; inhibition at 20 µM (CYP2D6): < 21%; inhibition at 20 µM (CYP2C9): < 21%; inhibition at 20 µM (CYP3A4): < 21%; inhibition at 20 µM (CYP1A2): < 21%; EC50 (Lassa virus [5]): < 0.3 nM; EC90 (Lassa virus [5]): 0.87 nM; EC50 (Junin virus [4]): 0.6 nM; EC90 (Junin virus [4]): 1.2 nM; EC50 (Lassa virus [6]): < 3.3 nM; EC90 (Lassa virus [6]): < 3.3 nM |
| Cc1cc2ncn(-c3ccc(OC(C)C)cc3)c2cc1-c1ccc(OC(C)C)cc1 | < 10% | 0.65 nM | 0.17 nM | 0.11 nM | inhibition at 20 µM (CYP2C19): < 21%; inhibition at 20 µM (CYP2D6): < 21%; inhibition at 20 µM (CYP2C9): < 21%; inhibition at 20 µM (CYP3A4): 44%; inhibition at 20 µM (CYP1A2): < 21%; EC50 (Lassa virus [5]): 1.2 nM; EC90 (Lassa virus [5]): 2.1 nM; EC50 (Lassa virus [6]): < 3.3 nM; EC90 (Lassa virus [6]): < 4.2 nM |
| CC(C)Oc1ccc(-c2cnc3ccc(-c4ccc(OC(C)C)cc4F)cn23)cc1 | – | > 25 nM | > 25 nM | > 25 nM | – |
| Cc1cc2ncn(-c3ccc(OC(C)(C)C)cc3)c2cc1-c1ccc(OC(C)(C)O)cc1 | < 10% | 4 nM | 0.12 nM | 1 nM | inhibition at 20 µM (CYP2C19): < 21%; inhibition at 20 µM (CYP2D6): < 21%; inhibition at 20 µM (CYP2C9): < 21%; inhibition at 20 µM (CYP3A4): < 21%; inhibition at 20 µM (CYP1A2): < 21%; EC50 (Lassa virus [5]): < 0.3 nM; EC90 (Lassa virus [5]): < 0.3 nM; EC50 (Junin virus [4]): 0.9 nM; EC90 (Junin virus [4]): 6.2 nM; EC50 (Lassa virus [6]): < 3.3 nM; EC90 (Lassa virus [6]): < 3.3 nM |
| CC(C)Oc1ccc(-c2ccc3ncc(-c4ccc(OC(C)C)cc4)n3c2)cc1 | 89% | – | – | – | – |
| CC(C)Oc1ccc(-c2ccc3ccn(-c4ccc(OC(C)C)cc4)c3c2)cc1 | – | > 25 nM | 20.6 nM | 0.89 nM | – |
